Data as given in patent publication US9822124B2, “Bicyclic heteroaromatic carboxamide compounds useful as Pim kinase inhibitors” (Incyte Corporation, priority 2014, dated 2017).

Key:
Format in all cases: biochemical
[1] = molecular target: Pim-3 (Homo sapiens (Human), UniProt Q86V86); assay: Pim-3 kinase assay (AlphaScreen, Biotin-labeled BAD peptide substrate); settings: 1 mM ATP; read-out: Pim3 IC50
Procedure: (§1) Pim-1 and Pim-3 kinase assays—20 μL reactions were run in white 384 well polystyrene plates dotted with 0.8 μL compound/DMSO in the assay buffer (50 mM Tris, pH 7.5, 0.01% Tween-20, 5 mM MgCl2, 0.01% BSA, 5 mM DTT), containing 0.05 μM Biotin-labeled BAD peptide substrate (AnaSpec 62269), 1 mM ATP, and […] (Pim-1, Invitrogen PV3503) or […] (Pim-3, Millipore 14-738) enzyme for 1 h at 25° C. Reactions were stopped by addition of 10 μL STOP Buffer (150 mM Tris, pH=7.5, 150 mM NaCl, 75 mM EDTA, 0.01% Tween-20, 0.3% BSA) supplemented with Phospho-Bad (Ser112) Antibody (Cell Signaling 9291) diluted 666-fold, and Streptavidin donor beads (PerkinElmer 6760002) along with Protein-A acceptor beads (PerkinElmer 6760137) at 15 μg/mL each. Supplementation of the STOP buffer with beads and stopping the reactions were done under reduced light. Prior to the stopping reactions STOP buffer with beads was preincubated for 1 h in the dark at room temperature. After stopping the reactions, plates were incubated for 1 h in the dark at room temperature before reading on a PHERAstar FS plate reader (BMG Labtech) under reduced light.

[2] = molecular target: Pim-1 (Homo sapiens (Human), UniProt P11309); assay: Pim-1 kinase assay (AlphaScreen, Biotin-labeled BAD peptide substrate); settings: 1 mM ATP; read-out: Pim1 IC50
Sequence of Pim-1 (P11309 whole entry): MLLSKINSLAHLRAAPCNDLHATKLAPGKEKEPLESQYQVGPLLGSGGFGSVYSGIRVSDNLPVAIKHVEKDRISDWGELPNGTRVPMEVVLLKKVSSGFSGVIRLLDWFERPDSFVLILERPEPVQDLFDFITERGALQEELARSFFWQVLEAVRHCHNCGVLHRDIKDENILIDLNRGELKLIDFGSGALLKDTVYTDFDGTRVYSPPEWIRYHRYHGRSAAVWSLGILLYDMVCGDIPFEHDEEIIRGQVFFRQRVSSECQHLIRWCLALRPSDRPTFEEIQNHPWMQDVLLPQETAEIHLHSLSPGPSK
Procedure: as §1

[3] = molecular target: Pim-2 (Homo sapiens (Human), UniProt Q9P1W9); assay: Pim-2 kinase assay (TR-FRET, Fluorescein-labeled CREBtide peptide substrate); settings: 1 mM ATP; read-out: Pim2 IC50
Sequence of Pim-2 (Q9P1W9 whole entry): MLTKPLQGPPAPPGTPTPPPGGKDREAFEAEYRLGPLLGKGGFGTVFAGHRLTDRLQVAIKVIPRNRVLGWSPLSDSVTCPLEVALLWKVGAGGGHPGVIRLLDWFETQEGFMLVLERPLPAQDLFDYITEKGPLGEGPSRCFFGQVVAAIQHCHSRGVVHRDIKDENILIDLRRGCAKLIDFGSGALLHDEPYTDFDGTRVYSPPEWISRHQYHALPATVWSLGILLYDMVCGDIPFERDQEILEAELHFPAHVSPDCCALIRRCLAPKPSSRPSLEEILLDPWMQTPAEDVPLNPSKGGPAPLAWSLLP
Procedure: Pim-2 kinase assay—20 μL reactions were run in white 384 well polystyrene plates dotted with 0.8 μL compound/DMSO in the assay buffer (50 mM Tris, pH 7.5, 0.01% Tween-20, 5 mM MgCl2, 0.01% BSA, 5 mM DTT), containing 0.05 μM Fluorescein-labeled CREBtide peptide substrate (Invitrogen PV3508), 1 mM ATP, and 1 nM enzyme (Invitrogen PV3649) for 2 h at 25° C. Reactions were stopped by addition of 10 μL TR-FRET Dilution Buffer (Invitrogen PV3574) with 30 mM EDTA and 1.5 nM LanthaScreen Tb-CREB pSer133 antibody (Invitrogen PV3566). After 30 min. incubation at room temperature, plates were read on a PHERAstar FS plate reader (BMG Labtech).

SMILES | IC50 [1] [nM] | IC50 [2] [nM] | IC50 [3] [nM]
CCc1coc2ccc(C(=O)Nc3cnccc3N3C[C@@H](N)[C@H](O)[C@@H](C)C3)nc12 [Example 15, N-(4-((3R,4R,5S)-3-Amino-4-hydroxy-5-methylpiperidin-1-yl)pyridin-3-yl)-3-ethylfuro[3,2-b]pyridine-5-carboxamide] | ≤ 10 | ≤ 10 | ≤ 100
C[C@@H]1C[C@H](N)CN(c2ccncc2NC(=O)c2ccc3occ(-c4c(F)cccc4F)c3n2)C1 [Example 19, N-(4-((3S,5R)-3-Amino-5-methylpiperidin-1-yl)pyridin-3-yl)-3-(2,6-difluorophenyl)furo[3,2-b]pyridine-5-carboxamide] | ≤ 10 | ≤ 10 | ≤ 100
COc1cc(F)c(-c2cnn3ccc(C(=O)Nc4cnccc4[C@@H]4C[C@H](C)C[C@H](N)C4)nc23)c(F)c1 [Example 84, N-{4-[(1R,3S,5S)-3-Amino-5-methylcyclohexyl]pyridin-3-yl}-3-(2,6-difluoro-4-methoxyphenyl)pyrazolo[1,5-a]pyrimidine-5-carboxamide] | ≤ 10 | ≤ 10 | ≤ 100
COc1ccc(-c2cc3nc(C(=O)Nc4cnccc4N4C[C@H](C)C[C@H](N)C4)ccc3s2)cn1 [Example 55, N-(4-((3S,5R)-3-Amino-5-methylpiperidin-1-yl)pyridin-3-yl)-2-(6-methoxypyridin-3-yl)thieno[3,2-b]pyridine-5-carboxamide] | ≤ 10 | ≤ 10 | 100 to 1000
N[C@H]1CCCN(c2ccncc2NC(=O)c2ccc3scc(C4CC4)c3n2)C1 [Example 67, (S)-N-(4-(3-Aminopiperidin-1-yl)pyridin-3-yl)-3-cyclopropylthieno[3,2-b]pyridine-5-carboxamide] | ≤ 10 | ≤ 10 | 100 to 1000
CC(C)c1coc2ccc(C(=O)Nc3cnccc3N3C[C@H](C)C[C@H](N)C3)nc12 [Example 18, N-(4-((3S,5R)-3-Amino-5-methylpiperidin-1-yl)pyridin-3-yl)-3-isopropylfuro[3,2-b]pyridine-5-carboxamide] | ≤ 10 | ≤ 10 | ≤ 100
C[C@@H]1C[C@H](N)CN(c2ccncc2NC(=O)c2ccc3cc(C4CC4)oc3n2)C1 [Example 70, N-{4-[(3S,5R)-3-Amino-5-methylpiperidin-1-yl]pyridin-3-yl}-2-cyclopropylfuro[2,3-b]pyridine-6-carboxamide] | ≤ 10 | ≤ 10 | ≤ 100
CC(C)c1cc2nc(C(=O)Nc3cnccc3N3C[C@@H](N)[C@H](O)[C@@H](C)C3)ccc2s1 [Example 39, N-(4-((3R,4R,5S)-3-Amino-4-hydroxy-5-methylpiperidin-1-yl)pyridin-3-yl)-2-isopropylthieno[3,2-b]pyridine-5-carboxamide] | ≤ 10 | ≤ 10 | ≤ 100
CC(C)c1cc2nc(C(=O)Nc3cnccc3N3C[C@H](C)C[C@H](N)C3)ccc2o1 [Example 2, N-{4-[(3S,5R)-3-Amino-5-methylpiperidin-1-yl]pyridin-3-yl}-2-isopropylfuro[3,2-b]pyridine-5-carboxamide] | ≤ 10 | 10 to 50 | 100 to 1000
C[C@H]1CN(c2ccncc2NC(=O)c2ccc3ccn(C4CCC4)c3n2)C[C@@H](N)[C@@H]1O [Example 77, N-{4-[(3R,4R,5S)-3-Amino-4-hydroxy-5-methylpiperidin-1-yl]pyridin-3-yl}-1-cyclobutyl-1H-pyrrolo[2,3-b]pyridine-6-carboxamide] | ≤ 10 | ≤ 10 | 1000 to 10000
CCc1csc2ccc(C(=O)Nc3cnccc3N3CCC[C@H](N)C3)nc12 [Example 66, N-{4-[(3S)-3-Aminopiperidin-1-yl]pyridin-3-yl}-3-ethylthieno[3,2-b]pyridine-5-carboxamide] | ≤ 10 | ≤ 10 | 100 to 1000
COc1ccc(-c2coc3ccc(C(=O)Nc4cnccc4N4C[C@H](C)C[C@H](N)C4)nc23)cn1 [Example 23, N-(4-((3S,5R)-3-Amino-5-methylpiperidin-1-yl)pyridin-3-yl)-3-(6-methoxypyridin-3-yl)furo[3,2-b]pyridine-5-carboxamide] | 10 to 50 | ≤ 10 | 1000 to 10000
C[C@H]1CN(c2ccncc2NC(=O)c2ccc3cc([C@@H]4C[C@@H]4C)oc3n2)C[C@@H](N)[C@@H]1O (racemic) [Example 73, N-{4-[(3R,4R,5S)-3-Amino-4-hydroxy-5-methylpiperidin-1-yl]pyridin-3-yl}-2-(cis-2-methylcyclopropyl)furo[2,3-b]pyridine-6-carboxamide] | ≤ 10 | ≤ 10 | ≤ 100
C[C@H]1CN(c2ccncc2NC(=O)c2ccc3occ(-c4ccccc4F)c3n2)C[C@@H](N)[C@@H]1O [Example 12, N-(4-((3R,4R,5S)-3-Amino-4-hydroxy-5-methylpiperidin-1-yl)pyridin-3-yl)-3-(2-fluorophenyl)furo[3,2-b]pyridine-5-carboxamide] | ≤ 10 | ≤ 10 | 100 to 1000
C[C@@H]1C[C@H](N)CN(c2ccncc2NC(=O)c2ccc3scc(-c4cnn(C)c4)c3n2)C1 [Example 63, N-(4-((3S,5R)-3-Amino-5-methylpiperidin-1-yl)pyridin-3-yl)-3-(1-methyl-1H-pyrazol-4-yl)thieno[3,2-b]pyridine-5-carboxamide] | > 40 | ≤ 10 | > 2000
COc1cncc(-c2coc3ccc(C(=O)Nc4cnccc4N4C[C@H](C)C[C@H](N)C4)nc23)c1 [Example 32, N-(4-((3S,5R)-3-Amino-5-methylpiperidin-1-yl)pyridin-3-yl)-3-(5-methoxypyridin-3-yl)furo[3,2-b]pyridine-5-carboxamide] | ≤ 10 | ≤ 10 | 1000 to 10000
COc1ccc(-c2coc3ccc(C(=O)Nc4cnccc4N4C[C@@H](N)[C@H](O)[C@@H](C)C4)nc23)cn1 [Example 14, N-(4-((3R,4R,5S)-3-Amino-4-hydroxy-5-methylpiperidin-1-yl)pyridin-3-yl)-3-(6-methoxypyridin-3-yl)furo[3,2-b]pyridine-5-carboxamide] | 10 to 50 | ≤ 10 | 1000 to 10000
CCc1cc2nc(C(=O)Nc3cnccc3N3C[C@@H](N)[C@H](O)[C@@H](C)C3)ccc2s1 [Example 85, N-(4-((3R,4R,5S)-3-amino-4-hydroxy-5-methylpiperidin-1-yl)pyridin-3-yl)-2-ethylthieno[3,2-b]pyridine-5-carboxamide] | ≤ 10 | ≤ 10 | ≤ 100
C[C@H]1CN(c2ccncc2NC(=O)c2ccc3cc([C@H]4C[C@@H]4c4ccccc4)oc3n2)C[C@@H](N)[C@@H]1O [Example 72, N-(4-((3R,4R,5S)-3-Amino-4-hydroxy-5-methylpiperidin-1-yl)pyridin-3-yl)-2-((1S,2S)-2-phenylcyclopropyl)furo[2,3-b]pyridine-6-carboxamide] | ≤ 10 | ≤ 10 | 1000 to 10000
C[C@@H]1C[C@H](N)CN(c2ccncc2NC(=O)c2ccc3occ(C4CCN(C)CC4)c3n2)C1 [Example 24, N-(4-((3S,5R)-3-Amino-5-methylpiperidin-1-yl)pyridin-3-yl)-3-(1-methylpiperidin-4-yl)furo[3,2-b]pyridine-5-carboxamide] | > 40 | ≤ 10 | > 2000
COc1ccc(F)c(-c2coc3ccc(C(=O)Nc4cnccc4N4C[C@@H](N)[C@H](O)[C@@H](C)C4)nc23)c1F [Example 13, N-(4-((3R,4R,5S)-3-Amino-4-hydroxy-5-methylpiperidin-1-yl)pyridin-3-yl)-3-(2,6-difluoro-3-methoxyphenyl)furo[3,2-b]pyridine-5-carboxamide] | ≤ 10 | ≤ 10 | 100 to 1000
C[C@H]1CN(c2ccncc2NC(=O)c2ccc3sc(-c4c(F)cccc4F)cc3n2)C[C@@H](N)[C@@H]1O [Example 40, N-(4-((3R,4R,5S)-3-Amino-4-hydroxy-5-methylpiperidin-1-yl)pyridin-3-yl)-2-(2,6-difluorophenyl)thieno[3,2-b]pyridine-5-carboxamide] | ≤ 10 | ≤ 10 | 100 to 1000
C[C@@H]1C[C@H](N)CN(c2ccncc2NC(=O)c2ccc3sc(C4CC4)cc3n2)C1 [Example 59, N-(4-((3S,5R)-3-Amino-5-methylpiperidin-1-yl)pyridin-3-yl)-2-cyclopropylthieno[3,2-b]pyridine-5-carboxamide] | ≤ 10 | ≤ 10 | ≤ 100
